row,melting point [°C],Compound
1,129 to 131,Cc1ccc(Cl)cc1N1CC(C(=O)O)CC1=O (centres undefined)
2,199 to 201,Sc1ncccc1Br
3,194 to 196,Cc1nc2ccnn2c(C)c1C(=O)O
4,161 to 163,O=C(O)C1CCCCN1S(=O)(=O)c1ccc([N+](=O)[O-])cc1 (centres undefined)
5,74 to 76,CCNC(=O)c1ccc(C)c(N)c1
6,194 to 196,CC(C)n1ncc(C(N)=O)c1N
7,214 to 216,O=C(O)C1CCCN(S(=O)(=O)c2cccnc2)C1 (centres undefined)
8,70 to 75,Nc1cc(C(F)(F)F)ccc1NCc1ccccc1
9,75 to 77,CC(=CC(=O)O)c1ccccc1Cl
10,90 to 92,O=Cc1cn(-c2ccccc2)nc1-c1cccs1
11,198 to 200,Cn1nc(Br)c2c(NN)ncnc21
12,174 to 176,Cc1cc(Cl)ccc1OCc1n[nH]c(-c2ccccn2)n1
13,53 to 55,O=C(c1ccncc1)c1cc(F)ccc1F
14,68 to 70,Cc1c(Cl)cccc1N1C(=O)C=CC1=O
15,268 to 270,Nc1nc(-c2ccc(O)cc2)n[nH]1
16,152 to 154,O=C(Nc1ccc(S(=O)(=O)Cl)cc1)C(F)(F)F
17,158 to 160,Cc1cc(C(=O)O)c(C)n1-c1cccc(Br)c1
18,61 to 63,CS(=O)(=O)NCCCN
19,74 to 76,CC(NO)c1ccc(F)cc1 (centres undefined)
20,141 to 143,O=C(O)CN1C(=O)CCCc2ccccc21
21,199 to 201,COc1cc(/C=C(/C#N)C(=O)O)ccc1O
22,114 to 118,O=C(O)C1Cc2cc(Cl)ccc2O1 (centres undefined)
23,175 to 177,O=C(O)CNS(=O)(=O)c1ccc(F)c(F)c1F
24,169 to 171,CCn1c(N)nc2cc(Cl)ccc21
25,75 to 77,Cc1ccc(CCCCC(=O)O)cc1

row,melting point [°C],Compound
1,164 to 166,Cn1cc(C2NC(=O)CCC2N)cn1 (centres undefined)
2,165 to 167,NC(=O)CC(NS(=O)(=O)c1ccccc1F)C(=O)O (centres undefined)
3,103 to 105,Oc1ccc2oc3c(c2c1)CCCC3
4,60 to 62,CN1CCN(c2ccc(CN)cn2)CC1
5,168 to 170,Nc1ccn(CC(=O)N2CCOCC2)n1
6,114 to 116,FC(F)(F)c1cc(Cl)nc(-c2cccnc2)n1
7,65 to 67,NCC1(O)CCSCC1
8,130 to 132,Nc1cccc(I)c1C(=O)O
9,178 to 180,CCC(=O)c1ccc(C(=O)O)cc1
10,239 to 241,Cn1cc(NS(=O)(=O)c2ccsc2C(=O)O)cn1
11,173 to 175,Sc1nnc(-c2ccco2)o1
12,223 to 225,O=C(O)C1CCCN1C(=O)c1ccc2[nH]nnc2c1 (centres undefined)
13,98 to 100,N#CCOc1ccc(CO)cc1
14,134 to 136,Cc1cc(S(=O)(=O)Cl)ccc1-n1cnnn1
15,38 to 40,COc1cccc(-c2noc(CCl)n2)c1
16,89 to 91,NC(CCCN1CCCCC1)=NO
17,189 to 191,Cc1c(C(=O)O)nnn1-c1ccc2c(c1)OCCO2
18,154 to 156,CC(C)Oc1ccc(C(=O)NCC(=O)O)cc1
19,179 to 181,O=C(O)c1ccc([N+](=O)[O-])c(Br)n1
20,70 to 72,Cc1ccc(S(=O)(=O)Cl)c(Br)c1
21,219 to 221,Nc1nnc(-c2cccc(Cl)c2)[nH]1
22,68 to 70,CCCc1cc(N)n(C)n1
23,135 to 137,CN1CCN(C(=O)c2ccc(N)cc2)CC1
24,149 to 151,COC(=O)c1cccc(C(=O)O)n1
25,193 to 195,Cc1cc(=O)c(C(=O)O)n[nH]1

row,melting point [°C],Compound
1,207 to 209,Oc1ccc2c(O)ccnc2c1
2,153 to 155,CCC1(C)NC(=O)N(N)C1=O (centres undefined)
3,64 to 66,Nc1ccccc1-c1cc(F)c(F)c(F)c1
4,209 to 211,Oc1ccc(-n2cnnn2)cc1
5,117 to 119,O=C(CCCl)NC(=O)NCc1ccccc1
6,166 to 168,COc1ccc(C(=O)CC(C)(C)C(=O)O)cc1
7,216 to 218,NC1(C(=O)O)CCN(Cc2ccccc2)C1 (centres undefined)
8,191 to 193,CC(C)NC(=O)NC(C)C
9,117 to 119,CC(C)(C)c1cccc(OCC(=O)O)c1
10,168 to 170,O=C(O)C(NS(=O)(=O)c1cccc(Cl)c1)c1ccccc1 (centres undefined)
11,185 to 187,NC(=O)c1sc2nc(C3CC3)cc(-c3ccccc3)c2c1N
12,33 to 35,CC(C)(O)CN1CCN(C(=O)OC(C)(C)C)CC1
13,152 to 156,CN(CC(=O)O)S(=O)(=O)c1cccs1
14,198 to 200,NC(=O)NC(CC(=O)O)c1ccc(Cl)cc1 (centres undefined)
15,49 to 51,CCC(Br)C(=O)c1ccc(OC)cc1 (centres undefined)
16,139 to 141,O=Cc1c[nH]nc1-c1ccc(Cl)cc1
17,160 to 162,CC(C)(C)OC(=O)Nc1ccc(CC(N)=S)cc1
18,74 to 76,CC(C)(C)OC(=O)Nc1cccc(Cl)n1
19,192 to 194,CC(=O)Nc1c(Br)cccc1[N+](=O)[O-]
20,143 to 145,CN(C)c1ncc(Br)cc1C(=O)O
21,129 to 131,O=S(=O)(Cl)c1csc2ccc(F)cc12
22,70 to 72,COc1ccc(-c2csc(CC#N)n2)cc1
23,110 to 112,N#Cc1ccc(Oc2ccc(S(=O)(=O)Cl)cc2)cc1
24,138 to 140,CC(N)c1cc(F)ccc1N1CCC(O)CC1 (centres undefined)
25,177 to 179,CCc1ccc(-c2nn(-c3ccccc3C)cc2C(=O)O)cc1

row,melting point [°C],Compound
1,37 to 39,CCOc1ccc(CO)cc1OCC
2,157 to 159,Cc1cc(C)c(NC(=O)C(C)Cl)c(Cl)c1 (centres undefined)
3,159 to 161,Nc1ccc2oc(-c3cc(F)ccc3Br)nc2c1
4,205 to 207,CC(=O)c1c(C)[nH]c(C(=O)O)c1C
5,202 to 204,O=C(O)c1nc(=O)[nH][nH]1
6,219 to 221,O=C(CCl)Nc1nnc(-c2ccccc2)o1
7,127 to 129,Cc1cc(N)c(N)cc1C
8,231 to 233,CN1CCN(S(=O)(=O)c2ccc(N)cc2)CC1
9,83 to 85,COC(=O)C1=NOC(C(=O)O)C1 (centres undefined)
10,111 to 113,CC(=O)c1nnn(-c2ccc(C)cc2)c1C
11,89 to 91,O=C(NC1CC1)n1ccnc1
12,80 to 82,Cc1ccn2c(C=O)cnc2c1
13,123 to 125,Nc1c(C(=O)N2CCOCC2)oc2ccccc12
14,65 to 67,CCOCCOc1c(N)cccc1Cl
15,70 to 72,FC(F)(F)CNc1ccccn1
16,262 to 264,CC1(c2ccc(Br)cc2)NC(=O)NC1=O (centres undefined)
17,144 to 146,O=C(O)CCN1C(=O)CSc2ccccc21
18,98 to 100,CC(=O)N(C)CCCC(=O)O
19,59 to 61,CCC(N)C(=O)NC(CC)c1ccc(C)cc1 (centres undefined)
20,130 to 132,COc1cccc(-n2c(C)nnc2SCC(=O)O)c1
21,81 to 83,COC(=O)c1ncccc1F
22,125 to 127,CCOc1ccc2ncc(C#N)c(Cl)c2c1
23,194 to 196,O=C1NC(=O)C(c2cc(Br)ccc2F)N1 (centres undefined)
24,103 to 105,CC(Oc1ccc2c(c1)CCC2)C(=O)O (centres undefined)

row,Compound,melting point [°C]
1,CC1CCC(NC(=O)CCl)CC1 (centres undefined),152 to 155
2,O=[N+]([O-])c1ccc(Cl)cc1CBr,61 to 63
3,ClCc1cc2c(cc1Br)OCO2,62 to 66
4,CS(=O)(=O)Cc1noc(CCl)n1,73 to 75
5,NC1CCC(=O)NC1=O (centres undefined),214 to 216

# Reference: a melting point compilation (Tetko et al.)
